Tested on: endogenous target monocytes in human PBMC
Experiment: PBMC ex vivo monocyte depletion flow cytometry assay (Example 200)
Type: cell-based
Details: with anti-cotinine antibody (SEQ ID NO: 11/12), 18-24 hours, EC50 in molar, read-out: Ex Vivo Depletion Assay pEC50 (converted)
Outline: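 Monocyte depletion is reported as pEC50, averaged or given individually across runs, and read by flow cytometry staining CD45, CD14 and CD4 with a viability dye. Compounds, diluted four-fold over 11 points from 1 mM DMSO stocks, were combined with 30 μg/mL Fc-enhanced anti-cotinine antibody and human PBMC, then incubated 18-24 h at 37° C.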

## CC(C)N(C)[C@@H]1CC[C@H](N2CC[C@H](Nc3ncnc4ccc(C(F)(F)F)cc34)C2=O)[C@H](NC(=O)[C@H]2CC[C@H](NC(=O)CCOCCOCCOCCNC(=O)[C@H]3CC(=O)N(C)[C@@H]3c3cccnc3)CC2)C1 [Example 30, (2S,3S)-N-(2-(2-(2-(3-(((1R,4r)-4-(((1R,2S,5R)-5-(Isopropyl(methyl)amino)-2-((S)-2-oxo-3-((6-(trifluoromethyl)quinazolin-4-yl)amino)pyrrolidin-1-yl)cyclohexyl)carbamoyl)cyclohexyl)amino)-3-oxopropoxy)ethoxy)ethoxy)ethyl)-1-methyl-5-oxo-2-(pyridin-3-yl)pyrrolidine-3-carboxamide]
  EC50: 2.51 nM

## CC(C)N(C)[C@@H]1CC[C@H](N2CC[C@H](Nc3ncnc4ccc(C(F)(F)F)cc34)C2=O)[C@H](NC(=O)CCOCCNC(=O)COCCNC(=O)COCCNC(=O)[C@H]2CC(=O)N(C)[C@@H]2c2cccnc2)C1 [Example 102, (2S,3S)-N-(18-(((1R,2S,5R)-5-(Isopropyl(methyl)amino)-2-((S)-2-oxo-3-((6-(trifluoromethyl)quinazolin-4-yl)amino)pyrrolidin-1-yl)cyclohexyl)amino)-5,11,18-trioxo-3,9,15-trioxa-6,12-diazaoctadecyl)-1-methyl-5-oxo-2-(pyridin-3-yl)pyrrolidine-3-carboxamide]
  EC50: 0.316 nM

## CC(C)N(C)[C@@H]1CC[C@H](N2CC[C@H](Nc3ncnc4ccc(C(F)(F)F)cc34)C2=O)[C@H](NC(=O)CCOCCNC(=O)CCOCCNC(=O)COCCNC(=O)[C@H]2CC(=O)N(C)[C@@H]2c2cccnc2)C1 [Example 105, (2S,3S)-N-(19-(((1R,2S,5R)-5-(Isopropyl(methyl)amino)-2-((S)-2-oxo-3-((6-(trifluoromethyl)quinazolin-4-yl)amino)pyrrolidin-1-yl)cyclohexyl)amino)-5,12,19-trioxo-3,9,16-trioxa-6,13-diazanonadecyl)-1-methyl-5-oxo-2-(pyridin-3-yl)pyrrolidine-3-carboxamide]
  EC50: 0.398 nM

## CCN1C(=O)C[C@H](C(=O)NCCOCCOCCOCCC(=O)N[C@H]2CC[C@@H](C(=O)N[C@@H]3C[C@H](NC(C)(C)C)CC[C@@H]3N3CC[C@H](Nc4ncnc5ccc(C(F)(F)F)cc45)C3=O)CC2)[C@H]1c1cccnc1 [Example 35, (2S,3S)-N-(2-(2-(2-(3-(((1S,4s)-4-(((1R,2S,5R)-5-(tert-butylamino)-2-((S)-2-oxo-3-((6-(trifluoromethyl)quinazolin-4-yl)amino)pyrrolidin-1-yl)cyclohexyl)carbamoyl)cyclohexyl)amino)-3-oxopropoxy)ethoxy)ethoxy)ethyl)-1-ethyl-5-oxo-2-(pyridin-3-yl)pyrrolidine-3-carboxamide]
  EC50: 0.631 nM

## CC(C)N(C)[C@@H]1CC[C@H](N2CC[C@H](Nc3ncnc4ccc(C(F)(F)F)cc34)C2=O)[C@H](NC(=O)CCOCCNC(=O)CCCO[C@H]2CC[C@H](OCCNC(=O)[C@H]3CC(=O)N(C)[C@@H]3c3cccnc3)CC2)C1 [Example 7, (2S,3S)-N-(2-(((1r,4S)-4-(4-((2-(3-(((1R,2S,5R)-5-(Isopropyl(methyl)amino)-2-((S)-2-oxo-3-((6-(trifluoromethyl)quinazolin-4-yl)amino)pyrrolidin-1-yl)cyclohexyl)amino)-3-oxopropoxy)ethyl)amino)-4-oxobutoxy)cyclohexyl)oxy)ethyl)-1-methyl-5-oxo-2-(pyridin-3-yl)pyrrolidine-3-carboxamide]
  EC50: 0.501 nM

## CC(C)N(C)[C@@H]1CC[C@H](N2CC[C@H](Nc3ncnc4ccc(C(F)(F)F)cc34)C2=O)[C@H](NC(=O)CCCN2CCC3(CCN(CCCNC(=O)[C@H]4CC(=O)N(C)[C@@H]4c4cccnc4)CC3)CC2)C1 [Example 191, (2S,3S)-N-(3-(9-(4-(((1R,2S,5R)-5-(Isopropyl(methyl)amino)-2-((S)-2-oxo-3-((6-(trifluoromethyl)quinazolin-4-yl)amino)pyrrolidin-1-yl)cyclohexyl)amino)-4-oxobutyl)-3,9-diazaspiro[5.5]undecan-3-yl)propyl)-1-methyl-5-oxo-2-(pyridin-3-yl)pyrrolidine-3-carboxamide]
  EC50: 0.501 nM

## CC(C)N(C)[C@@H]1CC[C@H](N2CC[C@H](Nc3ncnc4ccc(C(F)(F)F)cc34)C2=O)[C@H](NC(=O)CNC(=O)[C@H]2CC[C@@H](NC(=O)CCOCCOCCNC(=O)[C@H]3CC(=O)N(C)[C@@H]3c3cccnc3)CC2)C1 [Example 137, (2S,3S)-N-(2-(2-(3-(((1S,4s)-4-((2-(((1R,2S,5R)-5-(Isopropyl(methyl)amino)-2-((S)-2-oxo-3-((6-(trifluoromethyl)quinazolin-4-yl)amino)pyrrolidin-1-yl)cyclohexyl)amino)-2-oxoethyl)carbamoyl)cyclohexyl)amino)-3-oxopropoxy)ethoxy)ethyl)-1-methyl-5-oxo-2-(pyridin-3-yl)pyrrolidine-3-carboxamide]
  EC50: 2 nM

## CC(C)N(C)[C@@H]1CC[C@H](N2CC[C@H](Nc3ncnc4ccc(C(F)(F)F)cc34)C2=O)[C@H](NC(=O)CCOCCOCCNC(=O)CCOCCOCCNC(=O)[C@H]2CC(=O)N(C)[C@@H]2c2cccnc2)C1 [Example 76, (2S,3S)-N-(19-(((1R,2S,5R)-5-(Isopropyl(methyl)amino)-2-((S)-2-oxo-3-((6-(trifluoromethyl)quinazolin-4-yl)amino)pyrrolidin-1-yl)cyclohexyl)amino)-9,19-dioxo-3,6,13,16-tetraoxa-10-azanonadecyl)-1-methyl-5-oxo-2-(pyridin-3-yl)pyrrolidine-3-carboxamide]
  EC50: 1.26 nM

## CC(C)N(C)[C@@H]1CC[C@H](N2CC[C@H](Nc3ncnc4ccc(C(F)(F)F)cc34)C2=O)[C@H](NC(=O)[C@H]2CC[C@@H](NC(=O)CCCC(=O)NCCCOCCCNC(=O)[C@H]3CC(=O)N(C)[C@@H]3c3cccnc3)CC2)C1 [Example 18, N^1-((1S,4s)-4-(((1R,2S,5R)-5-(Isopropyl(methyl)amino)-2-((S)-2-oxo-3-((6-(trifluoromethyl)quinazolin-4-yl)amino)pyrrolidin-1-yl)cyclohexyl)carbamoyl)cyclohexyl)-N^5-(3-(3-((2S,3S)-1-methyl-5-oxo-2-(pyridin-3-yl)pyrrolidine-3-carboxamido)propoxy)propyl)glutaramide]
  EC50: 0.501 nM

## CC(C)N(C)[C@@H]1CC[C@H](N2CC[C@H](Nc3ncnc4ccc(C(F)(F)F)cc34)C2=O)[C@H](NC(=O)CCOCCC(=O)N[C@H]2C[C@@H](C(=O)NCCOCCNC(=O)[C@H]3CC(=O)N(C)[C@@H]3c3cccnc3)C2)C1 [Example 186, (2S,3S)-N-(2-(2-((1S,3R)-3-(3-(3-(((1R,2S,5R)-5-(Isopropyl(methyl)amino)-2-((S)-2-oxo-3-((6-(trifluoromethyl)quinazolin-4-yl)amino)pyrrolidin-1-yl)cyclohexyl)amino)-3-oxopropoxy)propanamido)cyclobutane-1-carboxamido)ethoxy)ethyl)-1-methyl-5-oxo-2-(pyridin-3-yl)pyrrolidine-3-carboxamide]
  EC50: 0.316 nM

## CC(C)N(C)[C@@H]1CC[C@H](N2CC[C@H](Nc3ncnc4ccc(C(F)(F)F)cc34)C2=O)[C@H](NC(=O)CCOCCNC(=O)[C@H]2CC[C@@H](NC(=O)COCCNC(=O)[C@H]3CC(=O)N(C)[C@@H]3c3cccnc3)CC2)C1 [Example 107, (2S,3S)-N-(2-(2-(((1S,4R)-4-((2-(3-(((1R,2S,5R)-5-(Isopropyl(methyl)amino)-2-((S)-2-oxo-3-((6-(trifluoromethyl)quinazolin-4-yl)amino)pyrrolidin-1-yl)cyclohexyl)amino)-3-oxopropoxy)ethyl)carbamoyl)cyclohexyl)amino)-2-oxoethoxy)ethyl)-1-methyl-5-oxo-2-(pyridin-3-yl)pyrrolidine-3-carboxamide]
  EC50: 0.2 nM

## CC(C)N(C)[C@@H]1CC[C@H](N2CC[C@H](Nc3ncnc4ccc(C(F)(F)F)cc34)C2=O)[C@H](NC(=O)[C@H]2CC[C@@H](NC(=O)CCCO[C@H]3CC[C@H](OCCNC(=O)[C@H]4CC(=O)N(C)[C@@H]4c4cccnc4)CC3)CC2)C1 [Example 5, (2S,3S)-N-(2-(((1R,4S)-4-(4-(((1S,4S)-4-(((1R,2S,5R)-5-(Isopropyl(methyl)amino)-2-((S)-2-oxo-3-((6-(trifluoromethyl)quinazolin-4-yl)amino)pyrrolidin-1-yl)cyclohexyl)carbamoyl)cyclohexyl)amino)-4-oxobutoxy)cyclohexyl)oxy)ethyl)-1-methyl-5-oxo-2-(pyridin-3-yl)pyrrolidine-3-carboxamide]
  EC50: 0.398 nM

## CC(C)N(C)[C@@H]1CC[C@H](N2CC[C@H](Nc3ncnc4ccc(C(F)(F)F)cc34)C2=O)[C@H](NC(=O)[C@H]2CC[C@@H](NC(=O)CCOCCOCCOCCNC(=O)[C@H]3CC(=O)N(C)[C@@H]3c3cccnc3)CC2)C1 [Example 28, (2S,3S)-N-(2-(2-(2-(3-(((1S,4s)-4-(((1R,2S,5R)-5-(Isopropyl(methyl)amino)-2-((S)-2-oxo-3-((6-(trifluoromethyl)quinazolin-4-yl)amino)pyrrolidin-1-yl)cyclohexyl)carbamoyl)cyclohexyl)amino)-3-oxopropoxy)ethoxy)ethoxy)ethyl)-1-methyl-5-oxo-2-(pyridin-3-yl)pyrrolidine-3-carboxamide]
  EC50: 1 nM

## CC(C)N(C)[C@@H]1CC[C@H](N2CC[C@H](Nc3ncnc4ccc(C(F)(F)F)cc34)C2=O)[C@H](NC(=O)COCCNC(=O)COCCNC(=O)COCCNC(=O)[C@H]2CC(=O)N(C)[C@@H]2c2cccnc2)C1 [Example 111, (2S,3S)-N-(17-(((1R,2S,5R)-5-(Isopropyl(methyl)amino)-2-((S)-2-oxo-3-((6-(trifluoromethyl)quinazolin-4-yl)amino)pyrrolidin-1-yl)cyclohexyl)amino)-5,11,17-trioxo-3,9,15-trioxa-6,12-diazaheptadecyl)-1-methyl-5-oxo-2-(pyridin-3-yl)pyrrolidine-3-carboxamide]
  EC50: 5.01 nM
